Data on two compounds can be found in patent publication US5776769A, “Cell-type specific methods and devices for the low temperature preservation of the cells of an animal species” (Methodist Hospital of Indiana, priority 1995, dated 1998).

The subject of one data set is human spermatozoa. The conditions noted are these: cited from earlier work.
For data set [1], the system named is human sperm. Description: Sperm membrane integrity (dual staining, flow cytometry) after glycerol addition and removal. The data set is classed as cell-based. The conditions noted are these: in 1M glycerol or after addition and removal of 1M glycerol by the different procedures. From the text: One preferred procedure to assess cell viability utilizes dual flourescent staining and flow cytometric analysis as disclosed by Garner in Assessment of Spermatozoal Function Using Dual Fluorescent Staining and Flow Cytometric Analysis, Biol. Reprod. 34, 127-138, 1986, which is hereby incorporated into this specification by reference. Propidium iodide (PI) is a bright red, nucleic acid-specific fluorophore available from the Sigma Chemical Co. PI permeates poorly into sperm cells with intact plasma membranes, however, it readily diffuses into sperm having damaged membranes and stains the DNA red. […]
Plasma membrane integrity was analyzed by placing five μl of CFDA (suspended in 0.25 mg/ml of DMSO) and 5 μl of PI (suspended in 1 mg/ml H2 O) solutions into 0.5 ml of a particular sperm suspension. […] A total of 1×10^5 spermatozoa per treatment were analyzed using a FACSTAR PLUS™ flow cytometer.
TL-HEPES medium with 2M glycerol was either one-step or stepwise added to an equal volume of the isotonic sperm suspension to achieve a final 1M glycerol concentration at 22° C. […] Sperm motility before, during, and after the different glycerol addition and removal procedures was measured by CASA. The membrane integrity of the sperm was determined by the dual staining technique and flow cytometry.

The test system of the next data set is human sperm cells. Description: Glycerol removal with porous-membrane diffusion device. The data set is classed as cell-based. An excerpt:
A cell suspension with cryoprotectants is placed in the chamber (region 2) with an internal space/thickness of L. Two walls of the chamber are the porous membranes (regions 1 and 3) with special characteristics (e.g. membrane thickness: 150 μm, pore size: 0.22 to 0.65 μm in diameter, pore area: 70% of the total membrane surface area). For removing CPAs, isotonic cell culture medium without CPAs are continuously pumped and run through compartments (4 and 5) to quickly remove CPAs diffusing from the chamber (region 2) through the porous membrane. Meanwhile, the isotonic medium diffuses into the chamber to dilute the CPA concentration in the cell suspension. Because the porous membrane used is a nonselective membrane (pore size […]), CPAs and other solutes and solvents (water) diffuse freely across the […] with a constant cell suspension volume in the chamber. The pore size of the porous membrane, the thickness of the cell chamber, the diffusibility of CPA in the solution, the permeability coefficients of the cell membrane to water and CPA are control factors used in the design of the system. Basic assumptions and mathematical formulation describing the CPA diffusion across the porous membrane and the change of CPA concentration distribution in the chamber (i.e., the extracellular environment) are as follows:
A corresponding computer program using a finite difference method to calculate the above equations is used to simulate the mass transfer process in the system. The values of f, L2, Cf, Ci, L1, D1, D2 and hD can be used as control factors or adjustable parameters in the computer simulation. […] Calculated kinetic changes of glycerol concentration (initial 1M) at the chamber position A (center, see FIG. 19) and B (internal surface of porous membrane, see FIG. 19) are shown in FIG. 21, and the corresponding cell volume changes are calculated and predicted to be below the cell tolerance limit (1.1 times isotonic sperm volume), as shown in FIG. 22.

The subject of data set [2] is human sperm. Put plainly: Sperm motility (CASA) after glycerol addition and removal procedures. It counts as cell-based. The conditions noted are these: for sperm motility loss: final 1M glycerol, 22° C. As to the method: Sperm motility was measured by computer assisted semen analysis (CASA) using CELLSOFT™, version 3.2/C. CASA was performed before, during, and after the anisosmotic exposures of the sperm samples. All experiments were conducted at 22° C.
TL-HEPES medium with 2M glycerol was either one-step or stepwise added to an equal volume of the isotonic sperm suspension to achieve a final 1M glycerol concentration at 22° C. Glycerol in the sperm was removed by dilution either by a one-step or stepwise addition of the TL-HEPES medium with or without an osmotic buffer (sucrose) placed into the cell suspension. The detailed procedures for the glycerol addition and removal are described in Tables 2-5. Sperm motility before, during, and after the different glycerol addition and removal procedures was measured by CASA. The membrane integrity of the sperm was determined by the dual staining technique and flow cytometry.
The time interval between two steps was approximately 1-2 minutes. The volume of solution added in each step was calculated using Equations 5 or 6.
The final 90 μl of sperm suspension were further diluted by adding 180 μl of TALP solution for the CASA analysis. The time interval between two steps is approximately 1-2 minutes. The volume of diluent added in each step was calculated using Equations 7 or 8.
Add 2000 μl of isotonic solution directly to 100 μl of cell suspension with 1M glycerol.
(1) Add 2000 μl of sucrose buffer medium

For the compound `O` [Water, water], the “Water permeability coefficient (Lp)” value in the data set on human spermatozoa (not told) was 2.16 um/minutes/atm.
As for `OCC(O)CO` [glycerol], in the data set on human spermatozoa (22° C., human spermatozoa), the “Glycerol permeability coefficient (PCPA)” value is 18.3 ×10⁻⁶ cm/s. Further, in the data set on human sperm [1], the “membrane integrity of the human sperm” value is reported as “appeared to maintain membrane integrity under all experimental conditions”. Also, the “time for removal of over 95% of 1M glycerol” value with human sperm cells was not above 10 min. Besides, in the data set on human sperm cells (1M glycerol removal within 10 minutes), the “cell clumping, loss in motility or membrane integrity, or curling of sperm tails” value is listed as “without significant cell clumping, loss in motility or membrane integrity, or curling of sperm tails”. In addition, the “glycerol removed from the human sperm cells” value in the data set on human sperm cells (1M glycerol, within 10 minutes) is “over 95%”. For the same compound, in the data set with human sperm [2] (eight-step FMS removal of 1M glycerol), the “sperm that maintained motility” value is “over 92%”. Also, the “sperm that lost motility” value with human sperm [2] (eight-step FVS removal of 1M glycerol) was “Thirty-five percent”. For the same compound, the results for the sperm motility loss result in the data set on human sperm [2] (four-step FMS addition) and in the data set with human sperm [2] (one step addition) were “less than 8%” and “approximately 20%”, respectively. Also, the “motile sperm that kept motility” value with human sperm [2] (one-step removal of 1M glycerol) is “Less than 30%”. This compound also registered a motility loss in the data set with human sperm [2] (two-step removal of 1M glycerol using sucrose as non-permeating buffer (600 mOsm)) of approximately 45%.
